Experimental data from paper PMC11413503, “SCR‐7952, a highly selective MAT2A inhibitor, demonstrates synergistic antitumor activities in combination with the S‐adenosylmethionine‐competitive or the methylthioadenosine‐cooperative protein arginine methyltransferase 5 inhibitors in methylthioadenosine phosphorylase‐deleted tumors” (MedComm, 2024).
Values joined by “and” are separate entries in the source; they are usually repeats but may differ in a detail not shown here. Equal entries are not always repeated. Where two headings read alike, the source gives them in different places.

Legend:
[1] = Plasma pharmacokinetics after multiple administration in xenograft mice; assay type: in vivo; conditions: AG-270 200 mg/kg
UGT1A1 = tested on: UGT1A1; design: method as in PMID 16765731; conditions: off-target activity of AG-270; cited from earlier work
[2] = Plasma bilirubin in mice after oral treatment; assay type: in vivo; conditions: AG-270 200 mg/kg, 2 h after final dose
[3] = tested on: HCT116 MTAP−/− subcutaneous xenograft; assay: Xenograft efficacy study, monotherapy; assay type: in vivo, mice; conditions: AG-270 200 mg/kg oral
Method: An efficacy study in an HCT116 MTAP ^−/− subcutaneous xenograft mouse model was performed to evaluate the antitumor effect of SCR‐7952, with once daily (q.d.) oral dosing of 0.25, 0.5, 1.0, or 3.0 mg/kg, respectively.
Nu/Nu female mice (6–12 weeks old; Beijing Vital River Laboratory Animal Technology Co., Ltd.) were used for in vivo xenograft studies. All experimental procedures involving animals and their care were in accordance with the State Council Regulations for Laboratory Animal Management (Enacted in 1988) and approved by the Institutional Animal Care and Use Committee of Jiangsu Simcere Pharmaceutical Co., Ltd. (IACUC; Approval No. AP‐056).
(§1) Subcutaneous injections of HCT116 MTAP ^−/− cells were performed (5 × 10^6 cells in 100 µL) into Nu/Nu female mice. Mice were observed daily for the development of tumors. Six days after tumor implantation, mice were randomly distributed into different groups. SCR‐7952, AG‐270, JNJ‐64619178, or vehicle (water with 5% N‐methylpyrrolidone and 10% solutol HS‐15) were daily administrated by oral gavage. Tumor volumes and body weights were recorded three times per week. Tumor volumes were measured in two dimensions using a caliper, and the volume was expressed in mm^3 using the formula: V = (L × W × W)/2, where V is tumor volume, L is tumor length (the longest tumor dimension), and W is tumor width (perpendicular to L). The tumor growth inhibition rate (TGI%) of each dosing group was calculated according to the following formula: %TGI = (1 − (V t(treatment group) − V 0(treatment group))/(V t(vehicle group) − V 0(vehicle group))) × 100%, where V t is average tumor volume of a dosing group on a specific day, V 0 is average tumor volume of a dosing group on the initial day. At the end of the study, plasma and tumor tissues were collected and stored at −80°C for further measurement.

[4] = tested on: WI-38 (human fetal lung fibroblast cells); assay: Proliferation assay (CellTiter-Glo); assay type: cell-based; conditions: Homo sapiens, WI-38, MTAP WT; read-out: IC50, anti-proliferation WI-38
Method: (§2) HCT116 colon carcinoma parental (WT) cells with MTAP ^−/− isogenic clone were established by KYinno Biotechnology Co., Ltd. (Beijing, China). A549, MIA PaCa‐2, and WI‐38 cell lines were obtained from ATCC. NCI‐H838 was obtained from Cobioer Biosciences. HCT116 WT and KO MTAP cells were cultured in McCoy's 5A media containing 10% FBS. A549 cells were cultured in DMEM media containing 10% FBS. MIA PaCa‐2 cells were cultured in DMEM media containing 10% FBS and 2.5% horse serum. NCI‐H838 cells were cultured in PRMI 1640 media containing 10% FBS. WI‐38 cells were cultured in EMEM media containing 10% FBS.
(§3) Cells were plated in 96‐well cell culture plates and allowed to attach overnight at 37°C in 5% CO2. Compounds diluted in DMSO were added to cells in a dose–response format for 6 days. The final concentration of DMSO was 0.1% in media. Cell proliferation was measured using CellTiter‐Glo Cell Viability Assay (Promega). The IC50 values were calculated using the GraphPad Prism 9. Drug combination effects were analyzed using Combenefit software.[45]

MIA PaCa-2 = assay: Proliferation assay (CellTiter-Glo); assay type: cell-based; conditions: Homo sapiens, MIA PaCa-2, 144 h; MTAP-deleted, 6-day; read-out: IC50, anti-proliferation MIA PaCa-2
Method: as §2, §3

HCT116 MTAP−/− cells [5] = assay: Proliferation assay (CellTiter-Glo); assay type: cell-based; conditions: Homo sapiens, HCT-116, 144 h; 6-day treatment; read-out: IC50, anti-proliferation HCT116 MTAP−/−
Method: as §2, §3

A549 = assay: Proliferation assay (CellTiter-Glo); assay type: cell-based; conditions: Homo sapiens, A549, 144 h; MTAP-deleted, 6-day; read-out: IC50, anti-proliferation A549
Method: as §2, §3

HCT116 WT cells = assay: Proliferation assay (CellTiter-Glo); assay type: cell-based; conditions: Homo sapiens, HCT-116, 144 h; 6-day treatment; read-out: IC50, anti-proliferation HCT116 WT
Method: as §2, §3

NCI-H838 = assay: Proliferation assay (CellTiter-Glo); assay type: cell-based; conditions: Homo sapiens, NCI-H838, 144 h; MTAP-deleted, 6-day; read-out: IC50, anti-proliferation NCI-H838
Method: as §2, §3

HCT116 MTAP−/− cells [6] = assay: Intracellular SAM inhibition assay; assay type: cell-based; conditions: Homo sapiens, HCT-116, 6 h, read-out: IC50, cellular SAM levels
Method: MAT2A inhibition in the cellular environment was monitored by measurement of the abundance of its product SAM in HCT116 MTAP ^−/− cells. HCT116 MTAP ^−/− cells were plated in 96‐well cell culture plates at 50,000 cells per well and allowed to attach overnight at 37°C in 5% CO2. Compounds were added in a dose–response format to generate a 10‐point dose–response curve. Doses were started at a 10 µM top concentration with 1:5 serial dilution. After 6 h of incubation, the medium was removed and cells were extracted with 50% methanol containing 1 M acetic acid for SAM metabolite measurement by UPLC‐MS/MS.
The standard SAM solution was prepared in a surrogate matrix of 50% methanol containing 1 M acetic acid with a concentration range of 3–1000 ng/mL. The quality control sample was prepared in the same surrogate matrix. SAM‐d 3 was used as the internal standard (IS). A Waters UPLC system coupled with a SCIEX Triple Quad™ 6500^+ mass spectrometer […] was used to analyze the samples. Samples were separated on an ACQUITY UPLC® BEH amide column (2.1 × 50 mm, 1.7 µm). The mobile phase consisted of 5% acetonitrile containing 5 mM NH4OAc and 1% (v/v) formic acid (A) and 95% acetonitrile containing 5 mM NH4OAc and 1% (v/v) formic acid (B). […] SAM and SAM‐d 3 were detected with multiple‐reaction monitoring of a mass transition pair at m/z 399.2/250.2 and […], respectively.

MAT2A [7] = biological target: T1, MAT2A (Homo sapiens, UniProt P31153); design: method as in earlier work; conditions: read-out: IC50, inhibition of MAT2A activity; cited from earlier work
T1 construct: purchased Pharmaron 210405‐HWR‐20210429

MTAP−/− cancer cells = tested on: MTAP−/− cancer cells; design: method as in earlier work; conditions: read-out: IC50, antiproliferation on MTAP−/− cancer cells; cited from earlier work
[8] = tested on: MTAP-deleted squamous NSCLC; design: method as in NCT04794699; conditions: 3/4 patients, up to 50% circulating tumor DNA decrease; ref NCT04794699; cited from earlier work
FANCA = assay: RT-PCR of FANCA and DI-containing transcripts; assay type: cell-based; conditions: 72 h
SDMA [9] = assay: Tumor SDMA levels in combination xenograft study; assay type: in vivo, mice; conditions: JNJ-64619178 1.0 mg/kg alone
SDMA [10] = assay: Immunoblot of SDMA (PRMT5-dependent mark); assay type: cell-based; conditions: 96 h, HCT116 MTAP−/− cells
HCT116 MTAP−/− xenograft = assay: Xenograft combination treatment study; assay type: in vivo, mice; conditions: JNJ-64619178 1.0 mg/kg alone
Method: as §1

Huh-7 cells = tested on: Huh-7 cells; design: method as in PMID 28553945; conditions: read-out: IC50, antiproliferative effect on Huh-7 cells; cited from earlier work
[11] = tested on: mixed-lineage leukemia-rearranged (MLLr) leukemia; design: method as in PMID 32456310; conditions: read-out: IC50, antiproliferation in MLLr leukemia; cited from earlier work
MAT2A [12] = biological target: T1, MAT2A; design: method as in PMID 28553945; conditions: chemical assay; cited from earlier work

T1 sequence (P31153 whole entry): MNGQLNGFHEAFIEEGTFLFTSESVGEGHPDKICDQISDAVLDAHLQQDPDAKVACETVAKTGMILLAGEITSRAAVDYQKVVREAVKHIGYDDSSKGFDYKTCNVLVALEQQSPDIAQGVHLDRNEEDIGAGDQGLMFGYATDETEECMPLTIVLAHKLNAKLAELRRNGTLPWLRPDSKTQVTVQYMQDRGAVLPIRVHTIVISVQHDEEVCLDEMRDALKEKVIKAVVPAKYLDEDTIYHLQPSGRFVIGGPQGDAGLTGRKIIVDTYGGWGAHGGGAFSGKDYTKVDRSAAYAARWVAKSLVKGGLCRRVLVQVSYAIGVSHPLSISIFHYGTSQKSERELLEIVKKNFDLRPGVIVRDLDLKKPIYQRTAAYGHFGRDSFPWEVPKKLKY

In the case of `COc1ccc(-c2c(Nc3ccccn3)[nH]c3c(C4=CCCCC4)c(-c4ccccc4)nn3c2=O)cc1` [AG‐270, reference compound], the AUC0-24h free drug ([1]; calculated) is listed as 3.829 µg·h/mL, the AUC(0-t) ([1]; Nu/Nu, mouse, oral, plasma, HCT116 MTAP−/− xenograft mice, read-out: AUC0-24h total) is listed as 383 µg·h/mL and the IC50 (UGT1A1) is listed as 1100 nM. The “effect on plasma total, direct and unconjugated bilirubin” value [2] was “remarkably increased”, the TGI [3] was 52.0% and the IC50 [4] was 1410 nM. The IC50 (MIA PaCa-2) was 935 nM, the IC50 (HCT116 MTAP−/− cells [5]) was 300 nM and the IC50 (A549) was 646 nM. For the same compound, the IC50 (HCT116 WT cells) was 1220 nM, the IC50 (NCI-H838) was 93.9 nM and the IC50 (HCT116 MTAP−/− cells [6]) was 5.8 nM.
In the case of `Nc1nc(=O)n(-c2ccccc2Cl)c2nc(C(F)(F)F)ccc12` [IDE397], the IC50 (MAT2A [7]) is given as about 10 nM, the IC50 (MTAP−/− cancer cells) is given as about 20 nM and the molecular responses [8] is given as 75%.
For `Nc1nc2cc(CC[C@H]3C[C@@H](n4ccc5c(N)ncnc54)[C@H](O)[C@@H]3O)ccc2cc1Br` [JNJ‐64619178, reference compound], the “expression of FANCA DI-containing transcripts” value (FANCA) was “increase of FANCA DI‐containing transcripts”, the “tumor SDMA levels” value (SDMA [9]) was “remarkable reduction” and the “SDMA level (immunoblot)” value (SDMA [10]) was “reduction of SDMA”. It also gave a TGI (HCT116 MTAP−/− xenograft) of 54.0%.
For `CN(C)CCc1nnc2cc(-c3ccccc3)c3cc(Cl)ccc3n12` [PF‐9366], the IC50 (Huh-7 cells) is given as ~10000 nM and 10000 nM, the IC50 [11] is given as about 10000 nM and the IC50 (MAT2A [12]) is given as 420 nM.
